This note sets out measurements from ChEMBL document CHEMBL4261551, “Click chemistry-assisted synthesis of triazolo linked podophyllotoxin conjugates as tubulin polymerization inhibitors” (Medchemcomm, 2017).

Structures are written as SMILES. Activity calls are given as the source filed them. The rule behind the calls is not given here.

In experiment [1] the test system is HeLa. The experiment can be described thus: cells. The following applies: Homo sapiens, 48 h.
Description: Cytotoxicity against human HeLa cells after 48 hrs by MTT assay
The species named for a further experiment is Sus scrofa. The experiment can be described thus: Inhibition of porcine brain tubulin polymerization at 3 uM after 1 hr by fluorescence assay relative to control.
Experiment [2] deals with HeLa. The experiment can be described thus: Induction of apoptosis in human HeLa cells assessed as caspase-3 activation at 0.5 uM after 48 hrs by fluorimetric method relative to control. The class given is functional.
Experiment [3] has as its system HeLa. The experiment can be described thus: Cell cycle arrest in human HeLa cells assessed as accumulation at G2/M phase at 0.5 uM after 48 hrs by propidium iodide staining based flow cytometry (reference value: 19.3%). The class given is functional. A general note: A flow cytometer gives signals particle by particle.
Experiment [4] concerns HeLa. The experiment can be described thus: Cell cycle arrest in human HeLa cells assessed as accumulation at sub-G1 phase at 0.5 uM after 48 hrs by propidium iodide staining based flow cytometry (reference value: 0.9%). The class given is functional.
In experiment [5] the test system is HeLa. The experiment can be described thus: Cell cycle arrest in human HeLa cells assessed as accumulation at S phase at 0.5 uM after 48 hrs by propidium iodide staining based flow cytometry (reference value: 11.3%). The class given is functional.
A further experiment deals with Tubulin (Homo sapiens) (UniProt P68371+Q9H4B7+P0DPH7+P68366+Q13509+Q71U36+P04350+Q3ZCM7+P07437+P68363+Q9BQE3+Q6PEY2+Q13885+Q9BVA1+Q9BUF5). The experiment can be described thus: Inhibition of tubulin polymerization in human HeLa cells assessed as disrupted microtubule organization at 0.5 uM after 48 hrs by immunohistochemical analysis. The class given is cell-based.

Another experiment has as its system HT-29. The experiment can be described thus: Cytotoxicity against human HT-29 cells after 48 hrs by MTT assay. It is filed as functional, cell-based. The following applies: HT-29, 48 h. A general note: Tetrazolium assays rely on reduction of a dye to a coloured formazan, in cell work by metabolically active cells.
The next experiment has as its system MCF7. The experiment can be described thus: cells. The following applies: Homo sapiens, MCF7, 48 h.
Another experiment has as its system B16. The experiment can be described thus: Cytotoxicity against […] cells after 48 hrs by MTT assay. The following applies: Mus musculus, B16, 48 h. It is filed as functional, cell-based.
In experiment [6] the test system is HeLa. The experiment can be described thus: Induction of apoptosis in human HeLa cells assessed as nuclear fragmentation at 0.5 uM after 48 hrs by Hoechst 33342 staining based fluorescent microscopic method. It is filed as functional, cell-based.
Experiment [7] deals with HeLa. The experiment can be described thus: Cell cycle arrest in human HeLa cells assessed as accumulation at G1 phase at 0.5 uM after 48 hrs by propidium iodide staining based flow cytometry (reference value: 62.5%). It is filed as functional.
Experiment [8] has as its system HeLa. The experiment can be described thus: Induction of apoptosis in human HeLa cells assessed as […] condensation at 0.5 uM after 48 hrs by Hoechst 33342 staining based fluorescent microscopic method. It is filed as functional, cell-based.

Description for MCF7: Cytotoxicity against human MCF7 cells after 48 hrs by MTT assay

Turning to `COc1cc([C@@H]2c3cc4c(cc3[C@@H](NC(=O)Cn3cc(-c5ccc(C(C)(C)C)cc5)nn3)[C@H]3COC(=O)[C@H]23)OCO4)cc(OC)c1OC`, the IC50 with HeLa [1] was determined as 0.9 µM; in the experiment on HT-29, 18.6 µM; with MCF7, 11.3 µM; in the experiment with B16 it was 10.6 µM. Also, the inhibition in the experiment listed under Sus scrofa stood at 46.4%. In addition, the “fold change (FC)” value with HeLa [2] is listed as 4 - 6. Further, the Activity is reported as 63.3% with HeLa [3], 0.2% with HeLa [4], 10.1% in the experiment with HeLa [5] and 12.5% with HeLa [7]. The inhibition entry on Tubulin (Homo sapiens) was “Active”. For the same compound, the outcome with HeLa [6] and with HeLa [8] was Active.

Turning to `COc1cc([C@@H]2c3cc4c(cc3[C@@H](NC(=O)Cn3cc(-c5cccc(Cl)c5)nn3)[C@H]3COC(=O)[C@H]23)OCO4)cc(OC)c1OC`, the half-inhibitory concentration (IC50) in the experiment on HeLa [1] was found to be 28.4 µM; with HT-29, 17.5 µM; with MCF7, 38.2 µM; in the experiment with B16, 23.6 µM.

For `COc1cc([C@@H]2c3cc4c(cc3[C@@H](NC(=O)Cn3cc(-c5cncn5C)nn3)[C@H]3COC(=O)[C@H]23)OCO4)cc(OC)c1OC`, the IC50 in the experiment on HeLa [1] turned out to be 2.3 µM; in the experiment on HT-29, 10.6 µM; with MCF7, 22.4 µM; in the experiment on B16 it was 10.8 µM.

For `COc1cc([C@@H]2c3cc4c(cc3[C@H](O)[C@H]3COC(=O)[C@H]23)OCO4)cc(OC)c1OC` [PODOFILOX], the IC50 in the experiment with HeLa [1] was determined as 2.36 µM; in the experiment on HT-29, 1.26 µM; in the experiment with MCF7 it was 3.75 µM; in the experiment on B16, 2.12 µM. In the experiment listed under Sus scrofa, this compound showed an inhibition of 50.2%. Also, in the experiment on HeLa [2], the outcome was Active.

`COc1cc([C@@H]2c3cc4c(cc3[C@@H](NC(=O)Cn3cc(-c5ccc(C)cc5)nn3)[C@H]3COC(=O)[C@H]23)OCO4)cc(OC)c1OC`: the IC50 in the experiment with HeLa [1] stood at 16.8 µM; in the experiment with HT-29, 22.5 µM; in the experiment with MCF7 it was 17.1 µM; in the experiment on B16 it was 23.5 µM.

For the compound `COc1cc([C@@H]2c3cc4c(cc3[C@@H](NC(=O)Cn3cc(-c5ccccn5)nn3)[C@H]3COC(=O)[C@H]23)OCO4)cc(OC)c1OC`, the IC50 in the experiment on HeLa [1] was determined as 23.6 µM; with HT-29, 18.4 µM; in the experiment on MCF7 it was 14.5 µM; with B16 it was 19.5 µM.

Consider `COc1cc([C@@H]2c3cc4c(cc3[C@@H](NC(=O)Cn3cc(CCC5C(=O)c6ccccc6C5=O)nn3)[C@H]3COC(=O)[C@H]23)OCO4)cc(OC)c1OC`, for which the concentration for half-maximal inhibition (IC50) in the experiment on HeLa [1] worked out at 2.6 µM; in the experiment with HT-29 it was 18.5 µM; in the experiment on MCF7, 7.2 µM; in the experiment on B16 it was 14.7 µM.

On to `COc1cc([C@@H]2c3cc4c(cc3[C@@H](NC(=O)Cn3cc(-c5cccs5)nn3)[C@H]3COC(=O)[C@H]23)OCO4)cc(OC)c1OC`, for which the concentration for half-maximal inhibition (IC50) in the experiment on HeLa [1] was determined as 6.5 µM; with HT-29, 19.5 µM; with MCF7, 8.9 µM; in the experiment with B16 it was 18.2 µM.

In the case of `COc1cc([C@@H]2c3cc4c(cc3[C@@H](NC(=O)Cn3cc(-c5ccccc5)nn3)[C@H]3COC(=O)[C@H]23)OCO4)cc(OC)c1OC`, the 50% inhibitory concentration (IC50) turned out to be 19.6 µM in the experiment on HeLa [1], 20.1 µM with HT-29, 8.1 µM in the experiment with MCF7 and 21.5 µM in the experiment with B16.

Regarding `COc1ccc(-c2cn(CC(=O)N[C@@H]3c4cc5c(cc4[C@@H](c4cc(OC)c(OC)c(OC)c4)[C@H]4C(=O)OC[C@@H]43)OCO5)nn2)cc1OC`, the half-maximal inhibitory concentration (IC50) turned out to be 17.9 µM in the experiment with HeLa [1], 13.9 µM in the experiment with HT-29, 15.8 µM with MCF7 and 22.4 µM in the experiment on B16.

For `COc1cc([C@@H]2c3cc4c(cc3[C@@H](O[C@@H]3O[C@@H]5CO[C@@H](C)O[C@H]5[C@H](O)[C@H]3O)[C@H]3COC(=O)[C@H]23)OCO4)cc(OC)c1O` [ETOPOSIDE], the IC50 came to 2.24 µM in the experiment on HeLa [1], 1.98 µM in the experiment with HT-29, 1.36 µM with MCF7 and 1.85 µM with B16.

On to `COc1cc([C@@H]2c3cc4c(cc3[C@@H](NC(=O)Cn3cc(-c5ccc(Br)cc5)nn3)[C@H]3COC(=O)[C@H]23)OCO4)cc(OC)c1OC`, for which the concentration for half-maximal inhibition (IC50) turned out to be 0.07 µM with HeLa [1], 0.1 µM in the experiment with HT-29, 0.9 µM with MCF7 and 10.1 µM with B16. Also, the inhibition in the experiment filed under Sus scrofa was 48.5%. For the same compound, the “fold change (FC)” value with HeLa [2] is 4 - 6. In addition, the Activity in the experiment with HeLa [3] is recorded as 62.7%; in the experiment with HeLa [4], 0.1%; in the experiment on HeLa [5], 10.5%; in the experiment with HeLa [7] it was 13.9%. Further, on Tubulin (Homo sapiens), the inhibition result was “Active”. The outcome in the experiment with HeLa [6] and with HeLa [8] was Active.

As for `COc1ccc2cc(-c3cn(CC(=O)N[C@@H]4c5cc6c(cc5[C@@H](c5cc(OC)c(OC)c(OC)c5)[C@H]5C(=O)OC[C@@H]54)OCO6)nn3)ccc2c1`, the IC50 with HeLa [1] worked out at 15.4 µM; in the experiment on HT-29 it was 13.6 µM; in the experiment on MCF7, 6.9 µM; in the experiment on B16, 14.3 µM.

Take `COc1cc([C@@H]2c3cc4c(cc3[C@@H](NC(=O)Cn3cc(-c5cccc(N)c5)nn3)[C@H]3COC(=O)[C@H]23)OCO4)cc(OC)c1OC`: the half-maximal inhibitory concentration (IC50) is 25.4 µM with HeLa [1], 15.6 µM in the experiment with HT-29, 21.9 µM in the experiment on MCF7 and 22.5 µM with B16.

A word on the IC50: it is the point on the concentration scale where inhibition reaches its midpoint. Higher therefore signals a need for much substance. For orientation: inhibition means the change of the read-out against control, counted positive when it falls.
